Laboratory results as given in patent US20040192638A1, “Method and composition for prolonging the residence time of drugs in the gut” (priority 2001, published 2004).
“Also recorded” adds a separate entry of the source. Values belong to the molecule of their own block, whether it stands above or below them.

Legend:
rat small intestine [1] = assay: Sustained Spike Potential (SSP) myoelectric bioassay, infusion into the duodenum via cannula in instrumented uninfected rats; type: in vivo; details: for SSP frequency compared with saline controls / background (in words): 0.2 ml infused into intestinal lumen, FIG. 3; for stimulation / induction of SSP above background levels (in words): infused into intestinal lumen, concentration not stated at the place
Excerpt: Outbred male rats (Sprague Dawley, Harlan Sprague Dawley, Inc., Indianapolis, Ind.) were housed singly and maintained on a 12-hour light/12-hour dark cycle. All rats used in the bioassay procedure were uninfected with tapeworms. The design and surgical implantation procedure of the intestinal extracellular bipolar electrodes have been described previously (Dwinell et al., 1994, 1997). Briefly, four bipolar electrodes were surgically sutured to the intestinal serosa of each rat according to the methods of Dwinell et at. (1994), which is incorporated herein by reference. Three electrodes (J1-J3) were implanted on the jejunum at 10 cm intervals, with the first electrode (J1) placed 10 cm caudal from the ligament of Treitz and proceeding caudally with J2 and J3. A fourth electrode (designated “I” because it was placed within the ileum) was placed 20 cm orad from the ileo-caecal junction. In addition, a cannula was implanted with one end residing in the lumen of the mid-duodenum, whereas the other end was exteriorized to allow infusion of test fractions.
All compounds tested were infused into the duodenum via the cannula. Compounds were delivered in 0.2 ml aliquots followed immediately by a 0.2 ml saline cannula rinse. These volumes were used in order to prevent muscle contraction due to stretch from larger bolus volumes. To observe the induction of SSP, intestinal myoelectric activity was recorded for 90 minutes following infusion.
Consistent with the protocol of Dwinell et al. (1994), intestinal myoelectric activity was not recorded for the first five days after implantation surgery. Control recordings were taken after this period to assure the return of normal myoelectric patterns of the MMC following the cessation of post-surgical ileus. Periodic “control” recordings were made with saline on the intervening days between the tests with tapeworm-conditioned medium (TCM) or its fractions.
In vivo intestinal myoelectric activity was recorded with a polygraph chart recorder (Grass Instruments, Quincy, Mass.). The myoelectric signal from each electrode was simultaneously recorded on paper and by a personal computer with an I/O board and WINDAQ software (Dataq Instruments, Akron, Ohio) connected to the polygraph recorder by an analog-to-digital converter (Dataq Instruments).
Food was removed on each recording day at 0800 hour to prevent animal feeding and the subsequent disruption of the interdigestive myoelectric pattern. Recording occurred between 1300 and 1900 hours. All recording sessions for each animal were at least 1.5 hour in duration, and all animals were recorded while awake and unrestrained. Vehicle (0.9% saline or in some cases RPMI 1640) was used as control for test substances.
Five days after electrode and cannula implantation surgery, three consecutive baseline 90-minute recordings were made on separate days in each rat to confirm the presence of normal intestinal myoelectric activity at the end of the immediate post surgical period.
Secreted compounds were infused via the duodenal cannula and the frequency of the sustained spike potential (SSP) electrical patterns was determined from recordings of myoelectric activity. […] The third and final phase of the MMC (marked by arrowheads) is a period of >90% spiking and represents a series of contractions migrating orad to caudad along the small intestine. The caudad migration of phase III between electrode sites propels lumenal content toward the caecum.
Cyclic nucleotides were degraded to their 5′-monophosphate derivatives by incubation with bovine brain phosphodiesterase (PDE; cat. # P-0134, Sigma Co., St. Louis, Mo.).

[2] = system: Male Ross x Ross broiler chicks; assay: Effect of cGMP on feed conversion ratio in broiler chicks; type: in vivo; details: for Feed Conversion Ration FCR / Feed Intake / Gain: Experiment 1; for Feed Intake / Gain: per pen of 5 chicks, 10 mg cGMP/kg of feed and/or 100 mg succinate/kg of feed, terminated after week 2
Method: cGMP for use in this Example was manufactured by ICN Biomedicals (Irvine, Calif.), and purchased from Fisher Scientific (Hampton, N.H.). Male Ross x Ross broiler chicks were obtained from Sunnyside Hatchery (Beaver Dam, Wis.). Standard commercial chick mash was used as a base ration. cGMP with and without succinate was dissolved in water and sprayed as a mist onto the basal diet during continuous mixing. […] Diets were prepared 1 to 3 days prior to the start of the experiment and stored in individual plastic buckets (1 bucket/replicate). Chicks were randomly placed into treatment groups with 5 birds per replicate. Chicks were weighed as a group, so each pen of 5 animals represents n=1. Treatments and replicates were randomly assigned (via a random number generator) to pens. Chicks were fed ad libitum and checked daily. Feed intake and pen weight were recorded weekly. Feed conversion ratios were calculated as grams of feed consumed/grams of weight gain in the animals. […] The results are shown in Table 2 for two sets of experiments. Experiment 1 was to run for 3 weeks, but was accidentally disrupted during the third week.

rat small intestine [3] = assay: Effect of cGMP combined with succinate on SSP frequency (Example 3); type: in vivo; details: for SSP stimulation (in words): FIG. 5
Method: In order to measure intestinal motility, rats were prepared as per […] et al. (1994) as described in the prior Examples. Briefly, electrodes were implanted along the length of the intestine to allow observation of intestinal muscle contraction, and a cannula was implanted in the duodenum to permit the infusion of test substances. After normal intestinal motility was established in each rat, test substances were infused through the duodenal cannula, and myoelectric recordings were used to observe the occurrence of SSP.

rat small intestine [4] = assay: SSP myoelectric recording after intragastric (per os) or intraperitoneal cGMP; type: in vivo; details: data not shown
Method: For intragastric infusion, rats (n=4) were lightly sedated with Halothane in order to insert a gastric tube per os and infused with 0.3 ml of 10 mM cGMP in saline directly into the lumen of the stomach. Thirty minutes of control myoelectric recording were always performed before infusion of any substance. Five to seven minutes after infusion, the rats were reconnected to the recorder. […] This procedure was repeated with the same rats on a different day with 0.3 ml 100 mM cGMP (equal to 100× the minimal dose required to increase SSP frequency by infusion into the lumen of the small intestine) and on a separate day with 0.3 ml saline as a vehicle control. Post-oral dosing myoelectric recordings were 90 minutes in duration.
Neither cGMP (1.0 ml of 100 mM) injected intraperitoneally nor cGMP (0.3 ml of 10 mM and 100 mM) introduced into the stomach per os initiated the SSP pattern in the small intestine (data not shown).

[5] = Effect of cGMP on drug uptake: atenolol in blood after intraduodenal infusion; type: in vivo, rat; details: atenolol 1 mg/kg intraduodenal; 0.2 ml of 10 mM cGMP 15 minutes prior to and 15 minutes after atenolol; same rats, FIG. 4
Method: Thus, a model drug, atenolol, was introduced directly into the lumen of the rat's small intestine, and the concentration of atenolol was measured in the blood over time. The blood values and concentration kinetics of the model drug were compared after infusion into the intestine alone or when infused with cGMP. Atenolol was quantified using conventional liquid chromatography/mass spectrometry methods.
Outbred male rats (Sprague Dawley, Harlan Sprague Dawley, Inc., Indianapolis, Ind.) were housed singly and maintained on a 12-hour light/12-hour dark cycle. All rats used in this bioassay procedure were uninfected with tapeworm. For intestinal infusion, rats (n=2) were lightly sedated, and an indwelling cannula was implanted into the duodenal lumen in each of two rats. […] In brief, the animal preparation involved the following: a cannula was surgically implanted into the duodenal region of each test rat. The cannula extended from the lumen of the duodenum, across the peritoneum, under the skin to the abdominal wall, and finally to an exit from the skin at the nape of the neck. […] During the surgery, both cannulas were filled with sterile saline and plugged with metal pins. Rats were allowed at least five days to recover from implantation surgery before any manipulation occurred. All rats were housed individually after surgery to prevent damage to the cannulas. […]

[6] = 10 mM, 0.2 ml infused into duodenum
[7] = 1 mM, 0.2 ml infused into duodenum
[8] = 100 mM, 0.2 ml infused into duodenum
[9] = grams of feed consumed/grams of weight gain
[10] = Experiment 2, grams of feed consumed/grams of weight gain

Compound: Nc1nc2c(nc(Br)n2[C@@H]2O[C@@H]3COP(=O)(O)O[C@H]3[C@H]2O)c(=O)[nH]1 [8-Br-cGMP, reference compound]
SSP/Hr (MEAN ± SE) (rat small intestine [1]; [6]): 0.50 ± 0.31 SSP/Hr
SSP frequency compared with saline controls / background (in words) (rat small intestine [1]; 10 mM): did not significantly increase

Compound: CC(=O)O [Acetate, reference compound]
SSP/Hr (MEAN ± SE) (rat small intestine [1]; 50 mM, 0.2 ml infused into duodenum): 0 SSP/Hr
stimulation / induction of SSP above background levels (in words) (rat small intestine [1]): lack of SSP induction

Compound: N[C@@H](C(=O)O)[C@@H](O)[C@H](O)[C@H](O)CO [D-Glucosaminic Acid, D-glucosaminic acid, reference compound]
SSP/Hr (MEAN ± SE) (rat small intestine [1]; 0.25 mM, 0.2 ml infused into duodenum): 0 SSP/Hr
stimulation / induction of SSP above background levels (in words) (rat small intestine [1]): lack of SSP induction

Compound: Nc1nc2nc[nH]c2c(=O)[nH]1 [Guanine suspension, guanine, reference compound]
SSP/Hr (MEAN ± SE) (rat small intestine [1]; [6]): 0 SSP/Hr

Compound: Nc1nc2nc[nH]c2c(=O)[nH]1 [Guanine, guanine, reference compound]
SSP/Hr (MEAN ± SE) (rat small intestine [1]; 0.1 mM, 0.2 ml infused into duodenum): 1.33 SSP/Hr
SSP/Hr (MEAN ± SE) (rat small intestine [1]; [7]): 1.33 ± 0.94 SSP/Hr
SSP/Hr (MEAN ± SE) (rat small intestine [1]; [6]): 0.33 ± 0.24 SSP/Hr
SSP frequency compared with saline controls / background (in words) (rat small intestine [1]; 10 mM): not significantly different from saline controls

Compound: Nc1nc2c(ncn2[C@@H]2O[C@H](COP(=O)(O)O)[C@@H](O)[C@H]2O)c(=O)[nH]1 [Guanosine Monophosphate, reference compound]
SSP/Hr (MEAN ± SE) (rat small intestine [1]; [6]): 0.5 ± 0.3 SSP/Hr

Compound: Nc1nc2c(ncn2[C@@H]2O[C@H](CO)[C@@H](O)[C@H]2O)c(=O)[nH]1 [Guanosine, guanosine, reference compound]
SSP/Hr (MEAN ± SE) (rat small intestine [1]; [6]): 0.50 ± 0.28 SSP/Hr
SSP frequency compared with saline controls / background (in words) (rat small intestine [1]; 10 mM): not significantly different from saline controls

Compound: CC(O)C(=O)O (stereo not drawn) [Lactic Acid, reference compound]
SSP/Hr (MEAN ± SE) (rat small intestine [1]; 20 mM, 0.2 ml infused into duodenum): 0 SSP/Hr
stimulation / induction of SSP above background levels (in words) (rat small intestine [1]): lack of SSP induction

Compound: O=C(O)CCC(=O)O [Succinate, succinic acid]
SSP frequency / SSP induction compared with saline controls (in words) (rat small intestine [1]; 100 mM infused into intestinal lumen): failure
SSP/Hr (MEAN ± SE) (rat small intestine [1]; [8]): 0.33 ± 0.27 SSP/Hr
stimulation / induction of SSP above background levels (in words) (rat small intestine [1]): does not alter motility
stimulation / induction of SSP above background levels (in words) (rat small intestine [1]; listed as succinate): lack of SSP induction
Feed Conversion Ration FCR [2, 9]: 1.561 ± 0.073
Feed Intake [2]: 2127 ± 257
Gain [2]: 1372 ± 194

amount of atenolol in the blood over the 20-minute period, with cGMP versus atenolol alone [5]: almost doubles
Compound: Nc1nc2c(ncn2C2OC3COP(=O)(O)OC3C2O)c(=O)[nH]1 (stereo not drawn) [cGMP, guanosine cyclic 3′, 5′-hydrogen phosphate]
SSP stimulation (in words) (rat small intestine [3]; 2.8 nM cGMP alone): did not stimulate SSP above the background; also recorded: generally does not produce
SSP stimulation (in words) (rat small intestine [3]; 10 mM cGMP alone): produces
concentrations of cGMP alone incapable of stimulating SSP (rat small intestine [3]; cGMP infused alone): below 1 mM
cGMP concentration required to activate SSP response (rat small intestine [3]; without succinate): about 10 mM
initiation of SSP pattern in the small intestine (in words) (rat small intestine [4]; 0.3 ml of 10 mM into the stomach per os): lack of intestinal response
initiation of SSP pattern in the small intestine (in words) (rat small intestine [4]; 0.3 ml of 100 mM into the stomach per os): lack of intestinal response
initiation of SSP pattern in the small intestine (in words) (rat small intestine [4]; 1.0 ml of 100 mM injected intraperitoneally): lack of intestinal response
SSP/Hr (MEAN ± SE) (rat small intestine [1]; 100 nM, 0.2 ml infused into duodenum): 0 SSP/Hr
SSP/Hr (MEAN ± SE) (rat small intestine [1]; 1 μM, 0.2 ml infused into duodenum): 0 SSP/Hr
SSP/Hr (MEAN ± SE) (rat small intestine [1]; 10 μM, 0.2 ml infused into duodenum): 0.5 ± 0.25 SSP/Hr
SSP/Hr (MEAN ± SE) (rat small intestine [1]; 100 μM, 0.2 ml infused into duodenum): 0.66 ± 0.38 SSP/Hr
SSP/Hr (MEAN ± SE) (rat small intestine [1]; [7]): 0.80 ± 0.18 SSP/Hr
SSP/Hr (MEAN ± SE) (rat small intestine [1]; 5 mM, 0.2 ml infused into duodenum): 1.60 ± 0.38 SSP/Hr
SSP/Hr (MEAN ± SE) (rat small intestine [1]; 10 mM + 1 Unit PDE (incubated 30° C. 16 hours before infusion)): 0 SSP/Hr
ability to stimulate SSP after incubation with phosphodiesterase (PDE) before infusion (in words) (rat small intestine [1]; 10 mM cGMP solution or TCM incubated in PDE before bioassay): lose their ability to stimulate SSP; also recorded: control values
SSP/Hr (MEAN ± SE) (rat small intestine [1]; [6]): 2.0 ± 0.38 SSP/Hr
SSP frequency compared with saline controls / background (in words) (rat small intestine [1]; 10 mM): significantly increased
SSP/Hr (MEAN ± SE) (rat small intestine [1]; 10 mM, boiled before infusion): 1.0 ± 0.47 SSP/Hr
SSP/Hr (MEAN ± SE) (rat small intestine [1]; [8]): 1.50 ± 0.46 SSP/Hr
SSP/Hr (MEAN ± SE) (rat small intestine [1]; 0.5 M, 0.2 ml infused into duodenum): 1.25 ± 0.41 SSP/Hr
lumenal dose range with significant increase in SSP frequency (rat small intestine [1]; FIG. 2, versus saline, Student t-test): 1 to 100 mM
stimulation / induction of SSP above background levels (in words) (rat small intestine [1]): initiated SSP myoelectric patterns
Feed Conversion Ration FCR [2, 9]: 1.535 ± 0.094
Feed Intake [2]: 2334 ± 144
Gain [2]: 1548 ± 65
FCR Week 1 [2, 10]: 1.635 ± 0.093
FCR Week 2 [2, 10]: 1.459 ± 0.058
FCR Week 3 [2, 10]: 1.580 ± 0.059

Compound: O=c1[nH]cnc2c1ncn2[C@@H]1O[C@@H]2COP(=O)(O)O[C@H]2[C@H]1O [cIMP, reference compound]
stimulation / induction of SSP above background levels (in words) (rat small intestine [1]): no response

Compound: O=c1ccn([C@@H]2O[C@@H]3COP(=O)(O)O[C@H]3[C@H]2O)c(=O)[nH]1 [cUMP, reference compound]
stimulation / induction of SSP above background levels (in words) (rat small intestine [1]): no response
